Results reported in the supplement of paper PMC10307832.

The cell lines below were run with CC(C)C[C@H](NC(=O)[C@H](CCc1ccccc1)NC(=O)CN1CCOCC1)C(=O)N[C@@H](Cc1ccccc1)C(=O)N[C@@H](CC(C)C)C(=O)[C@@]1(C)CO1 [Carfilzomib] + N=C(N)NC(=N)NCCc1ccccc1 [Phenformin] (partner 250 µM) (assay: relative viability (nuclei count vs DMSO), 5 days (fraction); higher = more cells survive). Conditions: first compound 0.001 µM.
In short: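 Lung cancer cell lines in 1536-well plates got either a single drug or a fixed anchor-drug dose together with five library-drug doses (not always all listed) in √10 steps, by pin tool, on the day after seeding. Nuclei were counted after 5 days, and relative viability is the treated-to-vehicle ratio of nuclei counts. Values are medians of duplicate plates.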

Point of comparison: NCI-H1395, relative viability 0.448. Against it:
- 201T — lower, 0.404
- A549 — lower, 0.0885
- A-427 — lower, 0.25
- ABC-1 — lower, 0.235
- BEN — lower, 0.319
- CAL-12T — higher, 0.61
- COR-L23 — lower, 0.442
- COR-L 105 — higher, 0.572
- ChaGo-K-1 — lower, 0.438
- EKVX — lower, 0.204
- EMC-BAC-2 — higher, 0.52
- EPLC-272H — lower, 0.269
- H3255 — lower, 0.395
- HARA — higher, 0.478
- HCC-15 — lower, 0.443
- HCC-44 — lower, 0.169
- HCC-78 — higher, 0.539
- HCC-366 — higher, 0.622
- HCC-827 — lower, 0.37
- HOP-62 — higher, 0.749
- LC-2-ad — higher, 0.567
- LCLC-97TM1 — lower, 0.423
- LCLC-103H — lower, 0.328
- LK-2 — higher, 0.628
- NCI-H358 — lower, 0.338
- NCI-H522 — higher, 0.697
- NCI-H596 — higher, 0.807
- NCI-H1563 — higher, 0.673
- NCI-H1623 — higher, 0.5
- NCI-H1792 — lower, 0.188
- NCI-H1944 — lower, 0.187
- NCI-H2170 — lower, 0.423
- NCI-H2342 — higher, 0.652
- SK-MES-1 — higher, 0.655
- SW 900 — lower, 0.431

Same assay, conditions: first compound 0.003162 µM

Point of comparison: HARA, relative viability 0.506. Against it:
- 201T — lower, 0.482
- A549 — lower, 0.231
- A-427 — lower, 0.464
- ABC-1 — lower, 0.25
- BEN — lower, 0.318
- CAL-12T — higher, 0.668
- COR-L23 — lower, 0.435
- COR-L 105 — lower, 0.391
- ChaGo-K-1 — higher, 0.524
- EKVX — lower, 0.24
- EMC-BAC-2 — higher, 0.62
- EPLC-272H — lower, 0.314
- H3255 — lower, 0.364
- HCC-15 — higher, 0.538
- HCC-44 — lower, 0.289
- HCC-78 — higher, 0.683
- HCC-366 — higher, 0.678
- HCC-827 — lower, 0.44
- HOP-62 — higher, 0.694
- LC-2-ad — higher, 0.668
- LCLC-97TM1 — lower, 0.401
- LCLC-103H — lower, 0.327
- LK-2 — higher, 0.584
- NCI-H358 — lower, 0.4
- NCI-H522 — higher, 0.719
- NCI-H596 — higher, 0.812
- NCI-H1395 — lower, 0.457
- NCI-H1563 — higher, 0.681
- NCI-H1623 — higher, 0.612
- NCI-H1792 — lower, 0.357
- NCI-H1944 — lower, 0.2
- NCI-H2170 — lower, 0.457
- NCI-H2342 — higher, 0.521
- SK-MES-1 — higher, 0.745
- SW 900 — higher, 0.937

Same assay, conditions: first compound 0.01 µM

Point of comparison: A549, relative viability 0.113. Against it:
- 201T — higher, 0.483
- A-427 — higher, 0.381
- ABC-1 — higher, 0.236
- BEN — higher, 0.346
- CAL-12T — higher, 0.591
- COR-L23 — higher, 0.404
- COR-L 105 — higher, 0.526
- ChaGo-K-1 — higher, 0.501
- EKVX — higher, 0.257
- EMC-BAC-2 — higher, 0.572
- EPLC-272H — higher, 0.307
- H3255 — higher, 0.441
- HARA — higher, 0.403
- HCC-15 — higher, 0.48
- HCC-44 — higher, 0.145
- HCC-78 — higher, 0.78
- HCC-366 — higher, 0.596
- HCC-827 — higher, 0.428
- HOP-62 — higher, 0.415
- LC-2-ad — higher, 0.612
- LCLC-97TM1 — higher, 0.497
- LCLC-103H — higher, 0.297
- LK-2 — higher, 0.158
- NCI-H358 — higher, 0.203
- NCI-H522 — higher, 0.668
- NCI-H596 — higher, 0.781
- NCI-H1395 — higher, 0.441
- NCI-H1563 — higher, 0.61
- NCI-H1623 — higher, 0.725
- NCI-H1792 — higher, 0.262
- NCI-H1944 — higher, 0.202
- NCI-H2170 — higher, 0.427
- NCI-H2342 — higher, 0.715
- SK-MES-1 — higher, 0.635
- SW 900 — higher, 0.133

Same assay, conditions: first compound 0.03162 µM

Point of comparison: SW 900, relative viability 0.163. Against it:
- 201T — higher, 0.464
- A549 — lower, 0.0362
- A-427 — lower, 0.116
- ABC-1 — higher, 0.229
- BEN — higher, 0.251
- CAL-12T — lower, 0.101
- COR-L23 — lower, 0.0562
- COR-L 105 — higher, 0.261
- ChaGo-K-1 — higher, 0.442
- EKVX — lower, 0.114
- EMC-BAC-2 — higher, 0.376
- EPLC-272H — lower, 0.124
- H3255 — higher, 0.354
- HARA — lower, 0.0435
- HCC-15 — higher, 0.222
- HCC-44 — lower, 0.107
- HCC-78 — higher, 0.668
- HCC-366 — higher, 0.565
- HCC-827 — higher, 0.394
- HOP-62 — higher, 0.232
- LC-2-ad — higher, 0.453
- LCLC-97TM1 — higher, 0.302
- LCLC-103H — higher, 0.285
- LK-2 — lower, 0.119
- NCI-H358 — lower, 0.0604
- NCI-H522 — higher, 0.515
- NCI-H596 — higher, 0.433
- NCI-H1395 — higher, 0.298
- NCI-H1563 — higher, 0.661
- NCI-H1623 — higher, 0.19
- NCI-H1792 — higher, 0.234
- NCI-H1944 — higher, 0.204
- NCI-H2170 — higher, 0.411
- NCI-H2342 — higher, 0.671
- SK-MES-1 — higher, 0.551

Same assay, conditions: first compound 0.1 µM

Point of comparison: 201T, relative viability 0.328. Against it:
- A549 — lower, 0.0257
- A-427 — lower, 0.133
- ABC-1 — lower, 0.185
- BEN — lower, 0.182
- CAL-12T — lower, 0.114
- COR-L23 — lower, 0.0638
- COR-L 105 — lower, 0.203
- ChaGo-K-1 — lower, 0.14
- EKVX — lower, 0.221
